Measurements reported in PMC11111404, “Discovery of potent small-molecule inhibitors of lipoprotein(a) formation” (Nature, 2024).
“And” between values parts separate entries of the source, which are not always exact repeats. Equal entries are not always repeated.

How the values were obtained:
Lp(a) = Lp(a) levels in LPA × ApoB100 transgenic mice; format: in vivo, mouse; design: Lp(a) / Diff_vs_Vehicle: unit not given here; settings: for % max Lp(a) decrease (dose, mg/kg): Lp(a) transgenic mice section; for % Lp(a) max decrease / ED50: BID, 5 days dosing; for Percent_change_from_Vehicle / Diff_vs_Vehicle: Lp(a); for Diff_vs_Vehicle: group statistics; for ED50: Mus musculus, 120 h
Protocol: The LPA gene (GenBank accession code NM_005577) encoding the human apo(a) protein with a signal peptide, one KIV type 1, six KIV type 2 repeats, one each of KIV types 3–10, one KV and one protease domain was subcloned into a transgenic vector containing a mouse albumin promoter cassette and a human growth hormone polyadenylation signal. The transgenic mouse line was generated by pronucleus injection of the LPA transgenic vector. Eight individual transgenic founder mice were assessed for germline transmission of LPA by genotyping and assessment of the levels of apo(a) in the plasma. Positive founder mice were crossed with ApoB100 transgenic mice (Taconic model 1004), and the resulting mouse line nomenclature (B6.SJL-Tg(APOB)1102Sgy Tg(Alb-LPA)32Arte) was selected on the basis of the confirmation of germline transmission, the identification of LPA and huApoB100 transgenes and the levels of Lp(a) in the plasma. Mice hemizygous for both transgenes were used for pharmacology studies. The studies were conducted in female Lp(a) double transgenic mice (age around 7–17 months). Mice were housed in cages with a standard light cycle (12-h light, 12-h dark), at room temperature (22 ± 4 °C), with a relative humidity of 30–70%. Mice were identified by numbers on the cage cards. After arrival, mice were fed on a normal diet (Harlan Teklad diet 2014). Mice were randomized to treatment groups (n = 5 per group, unless otherwise noted) by body weight and baseline plasma Lp(a) concentration using a block randomized allocation tool (BRAT) for the study. In an example Lp(a) transgenic mouse study in which 66 mice were prescreened for baseline Lp(a) levels, the average Lp(a) level was 45 ± 1.8 µg ml^−1 (range 20–78 µg ml^−1). Mice were dosed with various compounds in vehicle (10 ml kg^−1, 1% hydroxyethyl cellulose (HEC), 0.25% Tween-80, Antifoam) or with vehicle alone as a control orally BID for five days. Blood samples were collected by tail bleeds at designated times, and Lp(a) levels were determined by ELISA by an investigator who was blinded to group allocation. In brief, lipoprotein particles were captured by a goat anti-Lp(a)-antibody-coated plate (Abcam ab31675, diluted 1:12,500 in HEPES-buffered saline), the plates were washed and samples were detected using an HRP-conjugated goat anti-apoB antibody (Abcam ab27622, diluted 1:3,000). Colorimetric peroxidase substrate 3,3’,5,5’-TMB was added, and the reaction was stopped using 1 N sulfuric acid. Absorbance at 450 nm was read on a Molecular Devices SpectraMax plate reader. Blood samples were collected at four hours after dosing on day 5 of dosing to confirm exposure. Full pharmacokinetic (PK) profiles were not evaluated. Concentrations of compounds were evaluated from dried blood spots through a non-Good Laboratory Practice (GLP) liquid chromatography with tandem mass spectrometry (LC–MS/MS) assay. Data were analysed in GraphPad Prism v.9.5.1

apo(a) KIV8 = molecular target: T1, apo(a) KIV8 (Homo sapiens, UniProt P08519); experiment: ITC binding to apo(a) KIV8
T1 construct: made in house
T1 sequence (P08519 1387-1465 limits assumed): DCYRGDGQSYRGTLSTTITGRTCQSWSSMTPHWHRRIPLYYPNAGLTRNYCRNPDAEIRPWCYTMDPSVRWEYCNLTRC
Protocol: The nucleotide sequence encoding the human LPA gene (NP_005568.2) was inserted into a mammalian expression vector containing a cytomegalovirus promoter. Protein expression was performed by transient transfection of human embryonic kidney 293 (HEK293) cells cultured in serum-free medium. The culture medium was collected five days after transfection and human apo(a) protein was purified using L-lysine affinity chromatography. Nucleotide sequences encoding various KIV domains of human apo(a) and human and rat plasminogen were inserted into a pET21a Escherichia coli expression vector. Bacterial BL21(DE3) was used as the expression host, and the induction of protein expression was performed in 2× TY medium with 1 mM isopropyl β-D-1-thiogalactopyranoside at 37 °C for 5 h. Cells were collected and stored at –80 °C for subsequent protein purification and refolding. […] All protein concentrations were determined by A280.
Experiments were performed on a MicroCal Auto-iTC200 titration calorimeter (Malvern Panalytical), with a cell volume of 200 μl and a 40-μl microsyringe. […] The microsyringe was loaded with a solution of the respective compounds, with the concentration measured by quantitative nuclear magnetic resonance, and was inserted into the calorimetric cell prefilled with the respective recombinant proteins of known concentration in ITC buffer. […]

[1] = Lp(a) transgenic mice, oral BID, five days
[2] = transgenic mice, 3mpk oral BID five days, individual animal, 3 mg/kg
[3] = transgenic mice, 10mpk oral BID five days, individual animal, 10 mg/kg
[4] = transgenic mice, 30mpk oral BID five days, individual animal, 30 mg/kg
[5] = transgenic mice, 100mpk oral BID five days, individual animal, 100 mg/kg
[6] = transgenic mice, 1mpk oral BID five days, individual animal, 1 mg/kg
[7] = 1mpk, individual animals, Fig 3f data
[8] = 3mpk, individual animals, Fig 3f data
[9] = 10mpk, individual animals, Fig 3f data
[10] = 30mpk, individual animals, Fig 3f data

SMILES	% Lp(a) max decrease (Lp(a); Lp(a) transgenic mice) [%]	ED50 for Lp(a) reduction (Lp(a); [1]) [mg/kg]	Percent_change_from_Vehicle (Lp(a); [2])	Diff_vs_Vehicle (Lp(a); transgenic mice, 3mpk)	Percent_change_from_Vehicle (Lp(a); [3])	Diff_vs_Vehicle (Lp(a); transgenic mice, 10mpk)	Percent_change_from_Vehicle (Lp(a); [4])	Diff_vs_Vehicle (Lp(a); transgenic mice, 30mpk)	ED50 (Lp(a); Lp(a) transgenic mice) [mg/kg]	Lp(a) (Lp(a); [2])	Lp(a) (Lp(a); [3])	Lp(a) (Lp(a); [4])	Kd (apo(a) KIV8) [nM]	Diff_vs_Vehicle (Lp(a); transgenic mice, 1mpk)	other results
Cl.O=C(O)[C@@H](Cc1ccccc1)[C@H]1CCNC1 [LSN3353871]	78	14	-29.9395% and -21.6818% and -23.4274% and -25.3773% and -20.1775%	-3.8966	-56.5511% and -68.7767% and -51.9146% and -54.3536%	-9.353	-73.0355% and -73.0232% and -55.5978% and -55.3749% and -63.9731%	-10.3714	14	11.318 and 12.652 and 12.37 and 12.055 and 12.895	7.019 and 5.044 and 7.768 and 7.374	4.356 and 4.358 and 7.173 and 7.209 and 5.82	–	–	% max Lp(a) decrease (dose, mg/kg) (Lp(a); dose 20 mg/kg): 40 (20) %; maximum decrease in Lp(a) levels (Lp(a); [1]): up to 78%; Percent_change_from_Vehicle (Lp(a); [5]): -69.9343% and -77.4368% and -71.3085% and -83.0203% and -88.6967%; Diff_vs_Vehicle (Lp(a); transgenic mice, 100mpk): -12.6134; Lp(a) (Lp(a); [5]): 4.857 and 3.645 and 4.635 and 2.743 and 1.826
Cl.Cl.O=C(Nc1cccc(C[C@H](C(=O)O)[C@H]2CCNC2)c1)Nc1cccc(C[C@H](C(=O)O)[C@H]2CCNC2)c1 [LSN3441732]	79	4	-66.5236% and -51.6627% and -46.9156% and -38.737% and -24.3395%	-17.8805	-76.5617% and -56.1229% and -72.4537% and -56.7885% and -51.1958%	-24.5369	-63.8115% and -85.6659% and -79.4795% and -86.8495% and -81.3358%	-31.1209	4	13.1164 and 18.9391 and 20.799 and 24.0035 and 29.6445	9.183 and 17.1915 and 10.7929 and 16.9307 and 19.122	14.179 and 5.616 and 8.04 and 5.1525 and 7.3128	< 10	-9.583	% max Lp(a) decrease (dose, mg/kg) (Lp(a); dose 30 mg/kg): 79 (30) %; mean maximal inhibition of Lp(a) (Lp(a); Lp(a) transgenic mice, 30 mg kg^−1 oral BID, five days): 79%; Percent_change_from_Vehicle (Lp(a); [6]): -26.3802% and -29.1802% and -35.4498% and -52.0742% and 20.793%; Lp(a) (Lp(a); [6]): 28.845 and 27.7479 and 25.2914 and 18.7778 and 47.3279
O=C(O)[C@@H](Cc1cccc(CN(Cc2cccc(C[C@H](C(=O)O)[C@H]3CCNC3)c2)Cc2cccc(C[C@H](C(=O)O)[C@H]3CCNC3)c2)c1)[C@H]1CCNC1 [LY3473329]	91.2	–	–	-6.3714	–	-8.8948	–	-9.8776	3	–	–	–	22	-1.9212	Lp(a) (Lp(a); [7]): 7.93 and 10.403 and 8.938 and 8.912 and 9.52; Percent_change_from_Vehicle (Lp(a)) (Lp(a); [7]): -28.3118% and -5.956% and -19.1994% and -19.4345% and -13.9381%; Lp(a) (Lp(a); [8]): 3.393 and 6.014 and 3.723 and 4.125 and 6.197; Percent_change_from_Vehicle (Lp(a)) (Lp(a); [8]): -69.3269% and -45.6327% and -66.3436% and -62.7095% and -43.9784%; Lp(a) (Lp(a); [9]): 2.124 and 2.374 and 3.019 and 1.686 and 1.632; Percent_change_from_Vehicle (Lp(a)) (Lp(a); [9]): -80.7988% and -78.5388% and -72.7079% and -84.7584% and -85.2465%; Lp(a) (Lp(a); [10]): 1.195 and 0.994 and 1.853 and 0.894 and 0.985; Percent_change_from_Vehicle (Lp(a)) (Lp(a); [10]): -89.1971% and -91.0141% and -83.2487% and -91.9181% and -91.0955%; % max Lp(a) decrease (dose, mg/kg) (Lp(a); dose 100 mg/kg): 91.2 (100) %
